Measurements: ChEMBL document CHEMBL1201862, “PubChem BioAssay data set” (2004)
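The compound was tested at five concentrations on cells cultured in 96-well plates, with a 48-hour exposure period. At the GI50, growth is halved.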 The source made the active and inactive calls. Rule as the data show it: active = GI50 up to about 1.1 µM and inactive = higher.

What was measured:
Experiment in all cases: growth of human tumour cells (NCI), 48 h
[1] = system: CAKI-1
[2] = system: HCT-15
[3] = system: HOP-92
[4] = system: IGROV-1
[5] = system: K562
[6] = system: KM12
[7] = system: NCI-H460
[8] = system: NCI-H522
[9] = system: OVCAR-4
[10] = system: RPMI-8226
[11] = system: SF-295
[12] = system: SF-539
[13] = system: SK-MEL-5
[14] = system: UACC-62
[15] = system: A498
[16] = system: HCC 2998
[17] = system: TK-10

SMILES	GI50 [1]	GI50 [2] [µM]	GI50 [3]	GI50 [4]	GI50 [5]	GI50 [6]	GI50 [7]	GI50 [8]	GI50 [9]	GI50 [10]	GI50 [11]	GI50 [12]	GI50 [13]	GI50 [14]	GI50 [15]	GI50 [16]	GI50 [17]
O=C(NC(=O)c1cn(CCN2CCNCC2)c(=O)[nH]c1=O)OCc1ccccc1	> 100 µM (inactive)	> 100	> 100 µM (inactive)	> 10 µM (inactive)	> 100 µM (inactive)	> 100 µM (inactive)	> 100 µM (inactive)	> 100 µM (inactive)	> 100 µM (inactive)	> 100 µM (inactive)	> 100 µM (inactive)	> 100 µM (inactive)	> 100 µM (inactive)	> 100 µM (inactive)			
CCOC(=O)c1ccn2c(c1)c(C#N)c1nc3ccccc3nc12	54.5 µM (inactive)	41.6		5.4 µM (inactive)	33.9 µM (inactive)	51.6 µM (inactive)	28.6 µM (inactive)	45.3 µM (inactive)	91 µM (inactive)	43.6 µM (inactive)		> 100 µM (inactive)	35.6 µM (inactive)	0.908 µM (active)	85.5 µM (inactive)	53.1 µM (inactive)	75.9 µM (inactive)
CC(=O)OC1CC2C(C)(C)C(=O)C=C[C@]2(C)C2CCC3(C)C(=CC(=O)C3c3ccoc3)[C@]12C (stereo partly drawn)	24.7 µM (inactive)	11.7	19.9 µM (inactive)	16.6 µM (inactive)	9.55 µM (inactive)	11.9 µM (inactive)	11.4 µM (inactive)		18.4 µM (inactive)	14.9 µM (inactive)	15.2 µM (inactive)	16.9 µM (inactive)	13.1 µM (inactive)	13 µM (inactive)	16.9 µM (inactive)	12.3 µM (inactive)	15.7 µM (inactive)
COC(=O)C(=Cc1cc(OC)c(OC)c(OC)c1-c1cc2c(cc1C(C)=O)OCO2)C(=O)OC	54.3 µM (inactive)	24.2	44 µM (inactive)	50.1 µM (inactive)	37.6 µM (inactive)	32.2 µM (inactive)	62.8 µM (inactive)	28.5 µM (inactive)		35.5 µM (inactive)	48.5 µM (inactive)	43.8 µM (inactive)	32.7 µM (inactive)	32.6 µM (inactive)		40.3 µM (inactive)	77.8 µM (inactive)
CC(=O)NNc1nc(C)c(C(=O)NNC(=O)C(=O)Nc2c(C)cccc2C(C)C)s1		60.3	78 µM (inactive)	> 100 µM (inactive)	46.7 µM (inactive)	95.7 µM (inactive)	86.3 µM (inactive)	35.4 µM (inactive)	32.8 µM (inactive)	57.5 µM (inactive)	89.9 µM (inactive)	95.9 µM (inactive)	95.1 µM (inactive)	59.7 µM (inactive)	51.4 µM (inactive)	> 100 µM (inactive)	> 100 µM (inactive)
COCC1N=C(c2cc(OC)c(OC)c(OC)c2-c2cc3c(cc2[C@H](C)O)OCO3)O[C@H]1c1ccccc1 (stereo partly drawn)		56.9	27.2 µM (inactive)	> 100 µM (inactive)	> 10 µM (inactive)	52.6 µM (inactive)			33.5 µM (inactive)	31 µM (inactive)	48.2 µM (inactive)	69.7 µM (inactive)	42.4 µM (inactive)	> 100 µM (inactive)		> 100 µM (inactive)	> 100 µM (inactive)
Cc1ccccc1/N=N/C(C(=O)c1ccccc1)C(=O)c1ccccc1	34.1 µM (inactive)	17.1	17.9 µM (inactive)	44.2 µM (inactive)	22.6 µM (inactive)	29.7 µM (inactive)		15.7 µM (inactive)	18.7 µM (inactive)	16.1 µM (inactive)	23.8 µM (inactive)	23.8 µM (inactive)	16.6 µM (inactive)	20.9 µM (inactive)	39 µM (inactive)	40.8 µM (inactive)	44.8 µM (inactive)
CCOc1ccc(/N=N/c2ccc3oc(=O)c(/C(C)=N\NC(=O)CC(=O)Nc4ccc(Cl)cc4)cc3c2)cc1	> 100 µM (inactive)	6.25	25.2 µM (inactive)	22 µM (inactive)	17.3 µM (inactive)	19.2 µM (inactive)		18.6 µM (inactive)	20.4 µM (inactive)	16.2 µM (inactive)	16.5 µM (inactive)	17.5 µM (inactive)	14.3 µM (inactive)	10.1 µM (inactive)		16.3 µM (inactive)	12.9 µM (inactive)
C[C@]12CCC(=O)C=C1CC[C@@H]1[C@@H]2[C@@H](O)C[C@@]2(C)[C@H]1CC[C@]2(O)C(=O)COC(=O)CCC1CCCC1 [HYDROCORTISONE CYPIONATE]	87.5 µM (inactive)	> 100	> 100 µM (inactive)	> 100 µM (inactive)		> 100 µM (inactive)	> 100 µM (inactive)	> 100 µM (inactive)			> 100 µM (inactive)	> 100 µM (inactive)	> 100 µM (inactive)	> 100 µM (inactive)	> 100 µM (inactive)	> 100 µM (inactive)	> 100 µM (inactive)
Cc1ccc(C(=O)C(C)N)cc1C (stereo not drawn)	> 100 µM (inactive)			> 100 µM (inactive)	> 100 µM (inactive)	> 100 µM (inactive)	> 100 µM (inactive)	> 100 µM (inactive)	> 100 µM (inactive)	> 100 µM (inactive)	> 100 µM (inactive)	> 100 µM (inactive)	> 100 µM (inactive)	> 100 µM (inactive)	> 100 µM (inactive)	> 100 µM (inactive)	> 100 µM (inactive)
COc1cc2c(c3oc(-c4ccc5c(c4)OCO5)c(O)c(=O)c13)CCC(C)(C)O2		> 100		> 100 µM (inactive)	> 100 µM (inactive)	> 100 µM (inactive)				34.5 µM (inactive)	> 100 µM (inactive)	> 100 µM (inactive)	> 100 µM (inactive)	> 100 µM (inactive)	> 100 µM (inactive)	> 100 µM (inactive)	> 100 µM (inactive)
O=C(C(O)c1cn(Cc2ccccc2)c2ccccc12)N1CCCCC1 (stereo not drawn)		76.4	> 100 µM (inactive)	30.4 µM (inactive)	30.2 µM (inactive)	> 100 µM (inactive)		44.4 µM (inactive)		> 100 µM (inactive)	76 µM (inactive)	> 100 µM (inactive)	30.1 µM (inactive)	95.1 µM (inactive)	> 100 µM (inactive)	> 100 µM (inactive)	> 10 µM (inactive)
CC(=O)OC1COC(N2C(=O)/C(=N\NC(N)=S)c3cc(Br)ccc32)C(OC(C)=O)C1OC(C)=O (stereo not drawn)	> 100 µM (inactive)	61.9	> 100 µM (inactive)	> 100 µM (inactive)	48 µM (inactive)	39.4 µM (inactive)	23.8 µM (inactive)	> 100 µM (inactive)	42.6 µM (inactive)	17.6 µM (inactive)	45.3 µM (inactive)	43.5 µM (inactive)	85.9 µM (inactive)	35.6 µM (inactive)		> 100 µM (inactive)	> 100 µM (inactive)
NC(=O)N/N=C/C(/C=N/NC(N)=O)[N+](=O)[O-]	> 100 µM (inactive)		> 100 µM (inactive)	> 100 µM (inactive)	> 100 µM (inactive)	> 100 µM (inactive)		> 100 µM (inactive)	> 100 µM (inactive)	> 100 µM (inactive)	> 100 µM (inactive)	> 100 µM (inactive)		> 100 µM (inactive)	> 100 µM (inactive)		> 100 µM (inactive)
O=C(Cc1cc[n+]([O-])cc1)C(=O)Nc1cc(Cl)c(Cl)cc1Cl		> 100	38.3 µM (inactive)	> 100 µM (inactive)	> 100 µM (inactive)	> 100 µM (inactive)	> 100 µM (inactive)	> 100 µM (inactive)	> 100 µM (inactive)	> 100 µM (inactive)	> 100 µM (inactive)	> 100 µM (inactive)	> 100 µM (inactive)	> 100 µM (inactive)	> 100 µM (inactive)	> 100 µM (inactive)	> 100 µM (inactive)
CCCN(CCCC(NC(C)=O)C(=O)NCc1ccccc1)C(=O)NCCCl (stereo not drawn)	> 100 µM (inactive)	> 100	> 100 µM (inactive)	> 100 µM (inactive)	> 100 µM (inactive)	> 100 µM (inactive)	> 100 µM (inactive)	> 100 µM (inactive)	> 100 µM (inactive)	> 100 µM (inactive)	> 100 µM (inactive)	> 100 µM (inactive)		> 100 µM (inactive)		> 100 µM (inactive)	> 100 µM (inactive)
COC(=O)C1=CO[C@@H](OC2CC(CO)C(O)C(O)C2O)[C@@H]2[C@@H](C)[C@@H](OC(=O)/C=C/c3ccccc3)[C@@H](O)[C@H]12.COC(=O)C1=CO[C@@H](OC2CC(CO)C(O)C(O)C2O)[C@@H]2[C@@H](C)[C@@H](OC(=O)c3ccccc3)[C@@H](O)[C@H]12 (stereo partly drawn)	> 100 µM (inactive)		> 100 µM (inactive)	> 100 µM (inactive)	> 100 µM (inactive)	> 100 µM (inactive)		> 100 µM (inactive)	> 100 µM (inactive)	> 100 µM (inactive)	> 100 µM (inactive)	> 100 µM (inactive)	> 100 µM (inactive)	> 100 µM (inactive)	> 100 µM (inactive)	> 100 µM (inactive)	> 100 µM (inactive)
O=C1/C(=C/c2cccc([N+](=O)[O-])c2)COc2ccc(Br)cc21			> 100 µM (inactive)	> 100 µM (inactive)	22.9 µM (inactive)	> 100 µM (inactive)	> 100 µM (inactive)	55 µM (inactive)		2.24 µM (inactive)	> 100 µM (inactive)	> 100 µM (inactive)	> 100 µM (inactive)		> 100 µM (inactive)	> 100 µM (inactive)	> 100 µM (inactive)
